Reference: US5416191A, “Bradykinin antagonists” (Cortech, Inc., priority 1993, dated 1995)
Where two headings read alike, the source gives them in different places. Square brackets hold non-standard residues; d marks the D form. Peptide text beside a SMILES is read from it. * marks the point of attachment. Hyp = O=C(O)[C@@H]1C[C@@H](O)CN1; X8 = O=C1CC(*)C(=O)N1

Legend:
[1] = molecular target: T1, bradykinin receptor of the B2 class (rat uterus) (Rattus norvegicus, UniProt P25023); test: Rat uterus (RU) in vitro, antagonism of bradykinin
T1 construct: concentration effect curves to bradykinin (BK) on rat uterus in vitro; from tissue; host or cells: rat uterus
T1 sequence (P25023 1-396): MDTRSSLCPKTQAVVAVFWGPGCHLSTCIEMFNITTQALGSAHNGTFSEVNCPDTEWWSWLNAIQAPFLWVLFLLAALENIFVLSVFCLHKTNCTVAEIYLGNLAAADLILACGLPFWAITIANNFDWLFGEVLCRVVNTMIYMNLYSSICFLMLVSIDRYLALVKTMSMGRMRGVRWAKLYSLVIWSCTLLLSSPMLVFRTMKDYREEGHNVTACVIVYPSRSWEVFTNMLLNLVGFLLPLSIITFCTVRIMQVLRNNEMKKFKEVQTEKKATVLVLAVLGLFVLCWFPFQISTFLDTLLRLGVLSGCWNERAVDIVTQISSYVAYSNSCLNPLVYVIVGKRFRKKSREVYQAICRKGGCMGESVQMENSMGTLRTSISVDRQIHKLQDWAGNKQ
Experimental: Thus in vitro studies were performed on standard assay systems, namely, guinea-pig ileum (GPI), rat uterus (RU) and rabbit jugular vein (RJV). […] The PA2 can be defined as the negative logarithm of the molar concentration of the antagonist in the presence of which the potency of the agonist is reduced two-fold, i.e. twice the amount of agonist is required to produce a given response in the presence of, than in the absence of, the antagonist. A high potency of antagonism is indicated by a high PA2 value, i.e., a low concentration of antagonist is effective.
The percentage recovery (% Rec) was also determined for compounds with respect to each assay.
With respect to duration of activity, it is noted that after exposure to the highest concentration of antagonist, each tissue was washed extensively and then assessed for recovery from the antagonist effect.
Potency in the rat uterus assay was assessed as described above and PA2 values determined.

[2] = molecular target: T2, bradykinin receptor of the B2 class (guinea-pig ileum) (Cavia porcellus, UniProt O70526)
T2 sequence (O70526 1-372): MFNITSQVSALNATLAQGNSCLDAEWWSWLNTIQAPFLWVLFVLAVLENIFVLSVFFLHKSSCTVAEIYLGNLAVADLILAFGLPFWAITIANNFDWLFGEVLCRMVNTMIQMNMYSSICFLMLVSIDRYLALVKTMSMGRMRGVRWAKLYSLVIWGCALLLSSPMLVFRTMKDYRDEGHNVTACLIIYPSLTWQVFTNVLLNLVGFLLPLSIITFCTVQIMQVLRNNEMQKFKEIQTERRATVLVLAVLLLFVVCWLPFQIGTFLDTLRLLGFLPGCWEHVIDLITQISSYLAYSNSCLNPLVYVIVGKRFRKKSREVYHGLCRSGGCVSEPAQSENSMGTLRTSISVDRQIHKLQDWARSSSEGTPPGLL

[3] = Table C, rat uterus, P.A. = Partial Agonist, read-out: pA2 MONOMER (converted)
[4] = Table C, rat uterus, read-out: pA2 DIMER (converted)

SMILES	Kb [2]	% REC MONOMER ([1]; Table C, rat uterus)	Kb [1, 3]	% REC DIMER ([1]; Table C, rat uterus)	Kb [1, 4]	other results
CC(C)C[C@H](NC(=O)[C@@H](Cc1ccccc1)NC(=O)[C@H](CSSC[C@H](NC(=O)[C@H](Cc1ccccc1)NC(=O)CNC(=O)[C@@H]1C[C@@H](O)CN1C(=O)[C@@H]1CCCN1C(=O)[C@H](CCCNC(=N)N)NC(=O)[C@H](N)CCCNC(=N)N)C(=O)N[C@H](Cc1ccccc1)C(=O)N[C@@H](CC(C)C)C(=O)N[C@@H](CCCNC(=N)N)C(=O)O)NC(=O)[C@H](Cc1ccccc1)NC(=O)CNC(=O)[C@@H]1C[C@@H](O)CN1C(=O)[C@@H]1CCCN1C(=O)[C@H](CCCNC(=N)N)NC(=O)[C@H](N)CCCNC(=N)N)C(=O)N[C@@H](CCCNC(=N)N)C(=O)O [CP-0138] (HELM PEPTIDE1{[dR].R.P.[Hyp].G.F.C.[dF].L.R}|PEPTIDE2{[dR].R.P.[Hyp].G.F.C.[dF].L.R}$PEPTIDE1,PEPTIDE2,7:R3-7:R3$$$V2.0)	~631 nM	–	–	–	–	RAT UTERUS % RECOVERED ([1]; Table E): 100%; Kb ([1]; Table E, read-out: RAT UTERUS pA2 (converted)): 39.8 nM
CC(C)C[C@H](NC(=O)[C@@H](Cc1ccccc1)NC(=O)[C@H](CSC1CC(=O)NC1=O)NC(=O)[C@H](Cc1ccccc1)NC(=O)CNC(=O)[C@@H]1C[C@@H](O)CN1C(=O)[C@@H]1CCCN1C(=O)[C@H](CCCNC(=N)N)NC(=O)[C@H](N)CCCNC(=N)N)C(=O)N[C@@H](CCCNC(=N)N)C(=O)O (stereo partly shown) [CP-0139] (H-[dR]RP[Hyp]GFC(X8)[dF]LR-OH)	~79.4 nM	–	–	–	–	–
CC(C)C[C@H](NC(=O)[C@@H](Cc1ccccc1)NC(=O)[C@H](CO)NC(=O)[C@H](Cc1ccccc1)NC(=O)CNC(=O)[C@@H]1C[C@@H](O)CN1C(=O)[C@@H]1CCCN1C(=O)[C@H](CCCNC(=N)N)NC(=O)[C@@H](N)CS)C(=O)N[C@@H](CCCNC(=N)N)C(=O)O [CP-0140] (HELM PEPTIDE1{C.R.P.[Hyp].G.F.S.[dF].L.R}$$$$V2.0)	~316 nM	50%	100 nM	–	–	–
CC(C)C[C@H](NC(=O)[C@@H](Cc1ccccc1)NC(=O)[C@H](CO)NC(=O)[C@H](Cc1ccccc1)NC(=O)CNC(=O)[C@@H]1C[C@@H](O)CN1C(=O)[C@@H]1CCCN1C(=O)[C@H](CS)NC(=O)[C@H](N)CCCNC(=N)N)C(=O)N[C@@H](CCCNC(=N)N)C(=O)O [CP-0141] (HELM PEPTIDE1{[dR].C.P.[Hyp].G.F.S.[dF].L.R}$$$$V2.0)	~1000 nM	–	–	–	–	–
CC(C)C[C@H](NC(=O)[C@@H](Cc1ccccc1)NC(=O)[C@H](CO)NC(=O)[C@H](Cc1ccccc1)NC(=O)CNC(=O)[C@@H]1C[C@@H](O)CN1C(=O)[C@H](CS)NC(=O)[C@H](CCCNC(=N)N)NC(=O)[C@H](N)CCCNC(=N)N)C(=O)N[C@@H](CCCNC(=N)N)C(=O)O [CP-0142] (HELM PEPTIDE1{[dR].R.C.[Hyp].G.F.S.[dF].L.R}$$$$V2.0)	~2000 nM	80%	398 nM	–	–	–
CC(C)C[C@H](NC(=O)[C@@H](Cc1ccccc1)NC(=O)[C@H](CO)NC(=O)[C@H](Cc1ccccc1)NC(=O)CNC(=O)[C@H](CS)NC(=O)[C@@H]1CCCN1C(=O)[C@H](CCCNC(=N)N)NC(=O)[C@H](N)CCCNC(=N)N)C(=O)N[C@@H](CCCNC(=N)N)C(=O)O [CP-0143] (HELM PEPTIDE1{[dR].R.P.C.G.F.S.[dF].L.R}$$$$V2.0)	~316 nM	–	–	–	–	pA2 MONOMER ([1]; Table C, rat uterus, P.A. = Partial Agonist): P.A.
CC(C)C[C@H](NC(=O)[C@@H](Cc1ccccc1)NC(=O)[C@H](CO)NC(=O)[C@H](CS)NC(=O)CNC(=O)[C@@H]1C[C@@H](O)CN1C(=O)[C@@H]1CCCN1C(=O)[C@H](CCCNC(=N)N)NC(=O)[C@H](N)CCCNC(=N)N)C(=O)N[C@@H](CCCNC(=N)N)C(=O)O [CP-0144] (HELM PEPTIDE1{[dR].R.P.[Hyp].G.C.S.[dF].L.R}$$$$V2.0)	~501 nM	95%	63.1 nM	–	–	–
CC(C)C[C@H](NC(=O)[C@@H](Cc1ccccc1)NC(=O)[C@H](CO)NC(=O)[C@H](Cc1ccccc1)NC(=O)CNC(=O)[C@@H]1C[C@@H](O)CN1C(=O)[C@@H]1CCCN1C(=O)[C@H](CCCNC(=N)N)NC(=O)[C@H](N)CS)C(=O)N[C@@H](CCCNC(=N)N)C(=O)O [CP-0149] (HELM PEPTIDE1{[dC].R.P.[Hyp].G.F.S.[dF].L.R}$$$$V2.0)	~501 nM	75%	79.4 nM	–	–	–
CC(C)C[C@H](NC(=O)[C@@H](Cc1ccccc1)NC(=O)[C@H](CO)NC(=O)[C@H](Cc1ccccc1)NC(=O)CNC(=O)[C@@H]1C[C@@H](O)CN1C(=O)[C@@H]1CCCN1C(=O)[C@H](CCCNC(=N)N)NC(=O)[C@@H](N)CSC1CC(=O)N(CCCCCCN2C(=O)CC(SC[C@H](N)C(=O)N[C@@H](CCCNC(=N)N)C(=O)N3CCC[C@H]3C(=O)N3C[C@H](O)C[C@H]3C(=O)NCC(=O)N[C@@H](Cc3ccccc3)C(=O)N[C@@H](CO)C(=O)N[C@H](Cc3ccccc3)C(=O)N[C@@H](CC(C)C)C(=O)N[C@@H](CCCNC(=N)N)C(=O)O)C2=O)C1=O)C(=O)N[C@@H](CCCNC(=N)N)C(=O)O (stereo partly shown) [CP-0152] (HELM PEPTIDE1{C.R.P.[Hyp].G.F.S.[dF].L.R}|PEPTIDE2{C.R.P.[Hyp].G.F.S.[dF].L.R}|CHEM1{[O=C1CC([*:1])C(=O)N1CCCCCCN1C(=O)CC([*:2])C1=O]}$PEPTIDE1,CHEM1,1:R3-1:R1|PEPTIDE2,CHEM1,1:R3-1:R2$$$V2.0)	~316 nM	–	–	50%	12.6 nM	–
CC(C)C[C@H](NC(=O)[C@@H](Cc1ccccc1)NC(=O)[C@H](CO)NC(=O)[C@H](Cc1ccccc1)NC(=O)CNC(=O)[C@@H]1C[C@@H](O)CN1C(=O)[C@@H]1CCCN1C(=O)[C@H](CSC1CC(=O)N(CCCCCCN2C(=O)CC(SC[C@H](NC(=O)[C@H](N)CCCNC(=N)N)C(=O)N3CCC[C@H]3C(=O)N3C[C@H](O)C[C@H]3C(=O)NCC(=O)N[C@@H](Cc3ccccc3)C(=O)N[C@@H](CO)C(=O)N[C@H](Cc3ccccc3)C(=O)N[C@@H](CC(C)C)C(=O)N[C@@H](CCCNC(=N)N)C(=O)O)C2=O)C1=O)NC(=O)[C@H](N)CCCNC(=N)N)C(=O)N[C@@H](CCCNC(=N)N)C(=O)O (stereo partly shown) [CP-0153] (HELM PEPTIDE1{[dR].C.P.[Hyp].G.F.S.[dF].L.R}|PEPTIDE2{[dR].C.P.[Hyp].G.F.S.[dF].L.R}|CHEM1{[O=C1CC([*:1])C(=O)N1CCCCCCN1C(=O)CC([*:2])C1=O]}$PEPTIDE1,CHEM1,2:R3-1:R1|PEPTIDE2,CHEM1,2:R3-1:R2$$$V2.0)	~20 nM	–	–	100%	20 nM	–
CC(C)C[C@H](NC(=O)[C@@H](Cc1ccccc1)NC(=O)[C@H](CO)NC(=O)[C@H](Cc1ccccc1)NC(=O)CNC(=O)[C@@H]1C[C@@H](O)CN1C(=O)[C@H](CSC1CC(=O)N(CCCCCCN2C(=O)CC(SC[C@H](NC(=O)[C@H](CCCNC(=N)N)NC(=O)[C@H](N)CCCNC(=N)N)C(=O)N3C[C@H](O)C[C@H]3C(=O)NCC(=O)N[C@@H](Cc3ccccc3)C(=O)N[C@@H](CO)C(=O)N[C@H](Cc3ccccc3)C(=O)N[C@@H](CC(C)C)C(=O)N[C@@H](CCCNC(=N)N)C(=O)O)C2=O)C1=O)NC(=O)[C@H](CCCNC(=N)N)NC(=O)[C@H](N)CCCNC(=N)N)C(=O)N[C@@H](CCCNC(=N)N)C(=O)O (stereo partly shown) [CP-0154] (HELM PEPTIDE1{[dR].R.C.[Hyp].G.F.S.[dF].L.R}|PEPTIDE2{[dR].R.C.[Hyp].G.F.S.[dF].L.R}|CHEM1{[O=C1CC([*:1])C(=O)N1CCCCCCN1C(=O)CC([*:2])C1=O]}$PEPTIDE1,CHEM1,3:R3-1:R1|PEPTIDE2,CHEM1,3:R3-1:R2$$$V2.0)	~25.1 nM	–	–	90%	63.1 nM	–
CC(C)C[C@H](NC(=O)[C@@H](Cc1ccccc1)NC(=O)[C@H](CO)NC(=O)[C@H](Cc1ccccc1)NC(=O)CNC(=O)[C@H](CSC1CC(=O)N(CCCCCCN2C(=O)CC(SC[C@H](NC(=O)[C@@H]3CCCN3C(=O)[C@H](CCCNC(=N)N)NC(=O)[C@H](N)CCCNC(=N)N)C(=O)NCC(=O)N[C@@H](Cc3ccccc3)C(=O)N[C@@H](CO)C(=O)N[C@H](Cc3ccccc3)C(=O)N[C@@H](CC(C)C)C(=O)N[C@@H](CCCNC(=N)N)C(=O)O)C2=O)C1=O)NC(=O)[C@@H]1CCCN1C(=O)[C@H](CCCNC(=N)N)NC(=O)[C@H](N)CCCNC(=N)N)C(=O)N[C@@H](CCCNC(=N)N)C(=O)O (stereo partly shown) [CP-0155] (HELM PEPTIDE1{[dR].R.P.C.G.F.S.[dF].L.R}|PEPTIDE2{[dR].R.P.C.G.F.S.[dF].L.R}|CHEM1{[O=C1CC([*:1])C(=O)N1CCCCCCN1C(=O)CC([*:2])C1=O]}$PEPTIDE1,CHEM1,4:R3-1:R1|PEPTIDE2,CHEM1,4:R3-1:R2$$$V2.0)	~79.4 nM	–	–	100%	631 nM	–
